{"source": "the supplement of paper PMC4862054", "experiment_in_all_cases": "normalised viability (% of control), CellTiter-Blue; higher = more viable cells (about 100 = DMSO control)", "key": {"BT-474 [1]": {"tested_on": "BT-474", "conditions": "100 nM; incubation time: 72 h", "method": "(§1)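 DSRT, CellTiter-Blue viability, 72 h incubation. Signal is normalised to DMSO and benzethonium chloride controls. Value is the normalised response at dose 3.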"}, "DU-4475 [2]": {"tested_on": "DU-4475", "conditions": "10 nM; incubation time: 72 h", "method": "as §1"}, "HCC1599 [3]": {"tested_on": "HCC1599", "conditions": "100 nM; incubation time: 72 h", "method": "as §1"}, "MDA-MB-453 [4]": {"tested_on": "MDA-MB-453", "conditions": "10 nM; incubation time: 72 h", "method": "as §1"}, "MFM-223 [5]": {"tested_on": "MFM-223", "conditions": "100 nM; incubation time: 72 h", "method": "as §1"}, "SK-BR-3 [6]": {"tested_on": "SK-BR-3", "conditions": "100 nM; incubation time: 72 h", "method": "as §1"}, "BT-474 [7]": {"tested_on": "BT-474", "conditions": "incubation time: 72 h", "summary_of_the_method": "(§2)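 After 72 h on compound-loaded 384-well plates, breast cancer cell lines received 2.5 µl CellTiter-Blue reagent for 2 h at 37 °C. Fluorescence at 560/590 nm was scaled per plate so that vehicle was 100 and a positive kill control was 0. The value stands for normalised viability at a single listed concentration of the series.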"}, "BT-549": {"tested_on": "BT-549", "conditions": "incubation time: 72 h", "summary_of_the_method": "as §2"}, "CAL-120": {"tested_on": "CAL-120", "conditions": "incubation time: 72 h", "summary_of_the_method": "as §2"}, "CAL-148": {"tested_on": "CAL-148", "conditions": "incubation time: 72 h", "summary_of_the_method": "as §2"}, "CAL-51": {"tested_on": "CAL-51", "conditions": "incubation time: 72 h", "summary_of_the_method": "as §2"}, "CAL-85-1": {"tested_on": "CAL-85-1", "conditions": "incubation time: 72 h", "summary_of_the_method": "as §2"}, "DU-4475 [8]": {"tested_on": "DU-4475", "conditions": "incubation time: 72 h", "summary_of_the_method": "as §2"}, "HCC1143": {"tested_on": "HCC1143", "conditions": "incubation time: 72 h", "summary_of_the_method": "as §2"}, "HCC1599 [9]": {"tested_on": "HCC1599", "conditions": "incubation time: 72 h", "summary_of_the_method": "as §2"}, "HCC1937": {"tested_on": "HCC1937", "conditions": "incubation time: 72 h", "summary_of_the_method": "as §2"}, "HDQ-P1": {"tested_on": "HDQ-P1", "conditions": "incubation time: 72 h", "summary_of_the_method": "as §2"}, "Hs578T": {"tested_on": "Hs578T", "conditions": "incubation time: 72 h", "summary_of_the_method": "as §2"}, "MDA-MB-231": {"tested_on": "MDA-MB-231", "conditions": "incubation time: 72 h", "summary_of_the_method": "as §2"}, "MDA-MB-436": {"tested_on": "MDA-MB-436", "conditions": "incubation time: 72 h", "summary_of_the_method": "as §2"}, "MDA-MB-453 [10]": {"tested_on": "MDA-MB-453", "conditions": "incubation time: 72 h", "summary_of_the_method": "as §2"}, "MDA-MB-468": {"tested_on": "MDA-MB-468", "conditions": "incubation time: 72 h", "summary_of_the_method": "as §2"}, "MFM-223 [11]": {"tested_on": "MFM-223", "conditions": "incubation time: 72 h", "summary_of_the_method": "as §2"}, "SK-BR-3 [12]": {"tested_on": "SK-BR-3", "conditions": "incubation time: 72 h", "summary_of_the_method": "as §2"}}, "data": [{"compound": "CN1CCC(COc2cnc(-c3cccc(Cn4nc(-c5cccc(C#N)c5)ccc4=O)c3)nc2)CC1", "values": [{"measurement": "normalised viability", "setting": "BT-474 [1]", "result": 102, "unit": "%"}, {"measurement": "normalised viability", "setting": "DU-4475 [2]", "result": 98.3, "unit": "%"}, {"measurement": "normalised viability", "setting": "HCC1599 [3]", "result": 116, "unit": "%"}, {"measurement": "normalised viability", "setting": "MDA-MB-453 [4]", "result": 89.3, "unit": "%"}, {"measurement": "normalised viability", "setting": "MFM-223 [5]", "result": 96.9, "unit": "%"}, {"measurement": "normalised viability", "setting": "SK-BR-3 [6]", "result": 68.9, "unit": "%"}, {"measurement": "normalised viability", "setting": "BT-474 [7]; 10 nM", "result": 93.6, "unit": "%"}, {"measurement": "normalised viability", "setting": "BT-474 [7]; 1000 nM", "result": 105, "unit": "%"}, {"measurement": "normalised viability", "setting": "BT-474 [7]; 10000 nM", "result": 9.72, "unit": "%"}, {"measurement": "normalised viability", "setting": "BT-549; 10 nM", "result": 98.9, "unit": "%"}, {"measurement": "normalised viability", "setting": "BT-549; 1000 nM", "result": 90, "unit": "%"}, {"measurement": "normalised viability", "setting": "BT-549; 10000 nM", "result": 5.83, "unit": "%"}, {"measurement": "normalised viability", "setting": "CAL-120; 10 nM", "result": 97.3, "unit": "%"}, {"measurement": "normalised viability", "setting": "CAL-120; 1000 nM", "result": 116, "unit": "%"}, {"measurement": "normalised viability", "setting": "CAL-120; 10000 nM", "result": 11.8, "unit": "%"}, {"measurement": "normalised viability", "setting": "CAL-148; 3 nM", "result": 85.8, "unit": "%"}, {"measurement": "normalised viability", "setting": "CAL-148; 30 nM", "result": 83.2, "unit": "%"}, {"measurement": "normalised viability", "setting": "CAL-148; 100 nM", "result": 94.2, "unit": "%"}, {"measurement": "normalised viability", "setting": "CAL-51; 3 nM", "result": 97.3, "unit": "%"}, {"measurement": "normalised viability", "setting": "CAL-51; 30 nM", "result": 98, "unit": "%"}, {"measurement": "normalised viability", "setting": "CAL-51; 100 nM", "result": 87.6, "unit": "%"}, {"measurement": "normalised viability", "setting": "CAL-85-1; 3 nM", "result": 110, "unit": "%"}, {"measurement": "normalised viability", "setting": "CAL-85-1; 30 nM", "result": 96.5, "unit": "%"}, {"measurement": "normalised viability", "setting": "CAL-85-1; 100 nM", "result": 121, "unit": "%"}, {"measurement": "normalised viability", "setting": "DU-4475 [8]; 3 nM", "result": 94.1, "unit": "%"}, {"measurement": "normalised viability", "setting": "DU-4475 [8]; 30 nM", "result": 89.7, "unit": "%"}, {"measurement": "normalised viability", "setting": "DU-4475 [8]; 100 nM", "result": 99.2, "unit": "%"}, {"measurement": "normalised viability", "setting": "HCC1143; 10 nM", "result": 116, "unit": "%"}, {"measurement": "normalised viability", "setting": "HCC1143; 1000 nM", "result": 103, "unit": "%"}, {"measurement": "normalised viability", "setting": "HCC1143; 10000 nM", "result": 114, "unit": "%"}, {"measurement": "normalised viability", "setting": "HCC1599 [9]; 10 nM", "result": 108, "unit": "%"}, {"measurement": "normalised viability", "setting": "HCC1599 [9]; 1000 nM", "result": 120, "unit": "%"}, {"measurement": "normalised viability", "setting": "HCC1599 [9]; 10000 nM", "result": 71.9, "unit": "%"}, {"measurement": "normalised viability", "setting": "HCC1937; 10 nM", "result": 79.1, "unit": "%"}, {"measurement": "normalised viability", "setting": "HCC1937; 1000 nM", "result": 96.1, "unit": "%"}, {"measurement": "normalised viability", "setting": "HCC1937; 10000 nM", "result": 10.6, "unit": "%"}, {"measurement": "normalised viability", "setting": "HDQ-P1; 3 nM", "result": 82, "unit": "%"}, {"measurement": "normalised viability", "setting": "HDQ-P1; 30 nM", "result": 91.8, "unit": "%"}, {"measurement": "normalised viability", "setting": "HDQ-P1; 100 nM", "result": 70.5, "unit": "%"}, {"measurement": "normalised viability", "setting": "Hs578T; 10 nM", "result": 105, "unit": "%"}, {"measurement": "normalised viability", "setting": "Hs578T; 1000 nM", "result": 91, "unit": "%"}, {"measurement": "normalised viability", "setting": "Hs578T; 10000 nM", "result": 59.8, "unit": "%"}, {"measurement": "normalised viability", "setting": "MDA-MB-231; 10 nM", "result": 79, "unit": "%"}, {"measurement": "normalised viability", "setting": "MDA-MB-231; 1000 nM", "result": 81.3, "unit": "%"}, {"measurement": "normalised viability", "setting": "MDA-MB-231; 10000 nM", "result": 1.93, "unit": "%"}, {"measurement": "normalised viability", "setting": "MDA-MB-436; 10 nM", "result": 82.3, "unit": "%"}, {"measurement": "normalised viability", "setting": "MDA-MB-436; 1000 nM", "result": 92.3, "unit": "%"}, {"measurement": "normalised viability", "setting": "MDA-MB-436; 10000 nM", "result": 11.6, "unit": "%"}, {"measurement": "normalised viability", "setting": "MDA-MB-453 [10]; 3 nM", "result": 84.5, "unit": "%"}, {"measurement": "normalised viability", "setting": "MDA-MB-453 [10]; 30 nM", "result": 91.2, "unit": "%"}, {"measurement": "normalised viability", "setting": "MDA-MB-453 [10]; 100 nM", "result": 93.8, "unit": "%"}, {"measurement": "normalised viability", "setting": "MDA-MB-468; 10 nM", "result": 92.8, "unit": "%"}, {"measurement": "normalised viability", "setting": "MDA-MB-468; 1000 nM", "result": 92.9, "unit": "%"}, {"measurement": "normalised viability", "setting": "MDA-MB-468; 10000 nM", "result": 5.99, "unit": "%"}, {"measurement": "normalised viability", "setting": "MFM-223 [11]; 10 nM", "result": 108, "unit": "%"}, {"measurement": "normalised viability", "setting": "MFM-223 [11]; 1000 nM", "result": 119, "unit": "%"}, {"measurement": "normalised viability", "setting": "MFM-223 [11]; 10000 nM", "result": 22.5, "unit": "%"}, {"measurement": "normalised viability", "setting": "SK-BR-3 [12]; 10 nM", "result": 93.1, "unit": "%"}, {"measurement": "normalised viability", "setting": "SK-BR-3 [12]; 1000 nM", "result": 89.2, "unit": "%"}, {"measurement": "normalised viability", "setting": "SK-BR-3 [12]; 10000 nM", "result": 2.76, "unit": "%"}]}]}
